Reference: US7776572B2, “Method for reducing loss of enzyme activity during storage” (Corning Incorporated, priority 1996, dated 2010)
Marks after values point to notes of the source that are not given here.

Legend:
IgG [1] = assay: IgG/Au staining of coated polystyrene, type of endgroups
Protocol: Except where indicated, the non-ionic surfactants were applied to the hydrophobic surfaces being tested as a 0.1% (weight/volume) solution in isopropanol. A sufficient amount of coating solution was used to cover the surface being testing with a thin layer of the solution (e.g., 25 μl of the solution per well for a standard 24-well plate). In some cases, the solution was applied to surface by spraying; in others, it was poured onto the surface (into the well). Except where indicated, coated samples were either dried at 70° C. for 30 minutes in an air circulated oven or dried at room temperature overnight to evaporate the isopropanol. Protein binding was determined in some examples using a colloidal gold straining procedure. In accordance with this procedure, colloidal gold becomes electrostatically attached to bound protein and is detected by measuring absorbance at 550 nanometers. Bio-Rad Laboratories' Colloidal Gold Total Protein Stain was used for this purpose, with absorbance being measured with a Cambridge Technologies Plate Reader (No. 7520). The non-ionic surfactants listed in Table 6 were tested for their ability to produce a low binding surface using the techniques described in Materials and Methods. Polystyrene was used as the hydrophobic test surface and IgG/Au staining was used as the readout.

bound protein = assay: Colloidal gold staining of bound protein after MDCK culture in media containing 5% FBS, visual; conditions: colloidal gold after cell culture, visual observation
Protocol: The procedures used were as follows. Polystyrene 24-well plates were coated with the non-ionic surfactants listed in Table 5 in accordance with the procedures described in Materials and Methods. Uncoated plates were used as a control. For comparison, plates with a covalently attached acrylamide coating (Corning Costar Catalog #2500) and with a stearic acid coating were also tested. The stearic acid coating was applied in the same manner as the non-ionic surfactants again using a 0.1% (w/v) solution.
The plates were gamma sterilized at 1.5 Mrad and then inoculated with 5.6×10^4 MDCK […] per well in 1 ml of complete media containing 5% FBS (Fetal Bovine Serum). Incubation was carried out at 37° C. in a 5% CO2 atmosphere for two days. The plates were fixed and stained, and cell attachment was noted. Following this, the wells were stained using the colloidal gold technique to detect bound protein. Only visual observations were made.

Fetal Bovine Serum (FBS) = assay: Polymer blends molded into petri dishes, FBS protein binding by colloidal gold
BSA = assay: Polymer blends molded into petri dishes, BSA binding by colloidal gold
HRP-Goat A'Mouse IgG = assay: Enzymatic determination of protein binding to coated medium binding polystyrene plate; conditions: coated medium binding PS; versus uncoated high binding polystyrene plate; absorbance 405 nm
Protocol: The surfactants were coated onto a medium binding polystyrene plate (Corning Costar No. 2587) as described in Material and Methods. A medium binding polystyrene plate (Corning Costar No. 2587) and a high binding polystyrene plate (Corning Costar No. 2581) were used as controls.
(a) HRP-Goat A'Mouse IgG: Kirkegaard & Perry Laboratories, Inc. Catalog No. 074-1806. Stock solution: 0.5 mg/ml; working concentration: 0.04 μg/ml. The working concentration was obtained by adding 11 μl of the stock solution per 25 mls of PBS pH 7.4 to produce a work stock (WS), and then diluting 1:6 (i.e., 10 mls WS+50 mls PBS pH 7.4).
(1) 100 μl-well of HRP-Goat A'Mouse IgG at a concentration of 0.04 μg/ml were added to the test wells and incubated for 1 hour at room temperature.
(2) The wells were then washed 5 times with the 1M wash solution. Each wash include a 5 minute soak followed by decanting.
(3) 100 μl/well of substrate (30 mls ABTS+30 mls H2O2) were added to the test wells and incubated for 15 minutes at room temperature in the dark.
(4) 100 μl/well of stopping solution (1% SDS) were added to the test wells.
(5) The plates were then shaken and read at 405 nm.
(6) Reduction in binding was determined by comparing the absorbance measured in step (5) with the absorbance measured for a high binding polystyrene plate which had not been treated with a non-ionic surfactant but otherwise subjected to steps (1) to (5).

Horse IgG = assay: Protein binding by colloidal gold staining, coated medium binding polystyrene plates; conditions: coated medium binding PS; IgG 10 μg/ml, pH 9.4
Protocol: Except where indicated, the non-ionic surfactants were applied to the hydrophobic surfaces being tested as a 0.1% (weight/volume) solution in isopropanol. A sufficient amount of coating solution was used to cover the surface being testing with a thin layer of the solution (e.g., 25 μl of the solution per well for a standard 24-well plate). In some cases, the solution was applied to surface by spraying; in others, it was poured onto the surface (into the well). Except where indicated, coated samples were either dried at 70° C. for 30 minutes in an air circulated oven or dried at room temperature overnight to evaporate the isopropanol.
Protein binding was determined in some examples using a colloidal gold straining procedure. In accordance with this procedure, colloidal gold becomes electrostatically attached to bound protein and is detected by measuring absorbance at 550 nanometers. Bio-Rad Laboratories' Colloidal Gold Total Protein Stain was used for this purpose, with absorbance being measured with a Cambridge Technologies Plate Reader (No. 7520).
The surfactants were coated onto medium binding polystyrene plates (Corning Costar No. 2587) as described in Material and Methods.
The plates were incubated with IgG as follows: 0.1 ml of Horse IgG (Pierce Labs) at a working concentration of 10 μg/ml in 0.10M NaHCO3 buffer (pH9.4) were added to each well, incubated 30 minutes on a rocker table, and rinsed with dI H2O. The plates were gold stained overnight (0.3 ml/well), rinsed in dI H2O, air dried, and absorbance was measured at 550 nm.

IgG [2] = assay: Coating durability using water washes, IgG binding by colloidal gold; conditions: for Absorbance (550 nm) Initial: coated polystyrene, no water wash; for Absorbance (550 nm) 1 Time 1 hr 23° C. / Absorbance (550 nm) 1 Time 24 hr 23° C. / Absorbance (550 nm) 1 Time 24 hr 37° C. / Absorbance (550 nm) 1 Time 24 hr 70° C.: dI H2O wash 1 time; for Absorbance (550 nm) 6 Times 30 min each 23° C.: dI H2O wash 6 times
Protocol: Polystyrene plates having 24 wells (Corning Costar #9447) were coated with these surfactants as described in Materials and Methods. Durability was tested by adding dI H2O to the wells of a test plate (3.0 mls/well), following which the plate was placed on a rocker table. […] The protein solution was incubated with the plate on a rocker table for 30 minutes at 23° C., following which the plate was H2O rinse 3× (3 mls each time). The colloidal gold staining procedure described above was used to reveal bound protein. The staining comprised an overnight incubation on a rocker table at 23° C., a dI H2O rinse, drying at room temperature, and reading at 550 nm.

[3] = system: BSA protein (Bovine Serum Albumin, Fraction V); assay: BSA binding to coated polystyrene 24-well plates at different pH, colloidal gold stain; conditions: for Absorbance (550 nm) pH = 9.2: BSA 10 μg/ml in 0.10 M NaHCO3 buffer; for Absorbance (550 nm) pH = 7.4: BSA 10 μg/ml in 0.10 M PBS; for Absorbance (550 nm) pH = 4.6: BSA 10 μg/ml in 0.10 M acetate buffer
Protocol: Polystyrene plates having 24 wells (Corning Costar #9447) were coated as described in Materials and Methods.
BSA protein (Bovine Serum Albumin, Fraction V, Sigma) was prepared at 10 μg/ml in 0.10 M acetate buffer (pH=4.6), in 0.10 M PBS (pH=7.4), and in 0.10 M NaHCO3 buffer (pH=9.2). Wells of each coated plate, along with uncoated controls, were aliquoted 0.50 ml each of the protein solutions. The samples were run in triplicate.
The plates were placed on a rocker table for 30 minutes at 23° C. The protein solutions were then emptied from the plates, and the wells were rinsed three times with dl H2O. Thereafter, 1.0 ml of colloidal gold stain was added to each well (see Materials and Methods). The plates were placed on a rocker table overnight, rinsed three times with dI H2O, and air dried. Absorbance at 550 nm was then read using the Cambridge Technologies Plate Reader.

[4] = system: ^125I-IgG (goat anti-mouse); assay: Radiometric determination of IgG binding to surfactant-coated polystyrene microtiter wells; conditions: for Total IgG binding, Non-Sterilized: coated polystyrene wells; for Total IgG binding, Non-Sterilized / Tight IgG binding, Non-Sterilized: not sterilized
Protocol: The hydrophobic surfaces used were flat bottom microtiter plates composed of high binding polystyrene (Corning Costar No. 2581) and medium binding polystyrene (Corning Costar No. 2587). Testing was performed with and without gamma radiation sterilization using cobalt 60 (1.5 Mrad).
The surfactants were applied to the test plates as described in Materials and Methods, followed by sterilization where indicated.
Levels of protein binding were determined using a radiolabeled protein, namely, ^125I-IgG (goat anti-mouse) purchased from DuPont/NEN. Unlabeled IgG in sodium carbonate buffer pH 9.2 was spiked with ^125I-IgG so that the final concentration of labeled IgG and cold IgG in the test solution was 10 μg/mL.
Aliquots of 0.1 milliliters of the protein solution were placed in quadruplicate in the wells of 8-well strips removed from the test microtiter plates. The wells were incubated overnight at 4° C. with shaking. The supernatants were removed from the wells, followed by three washes with 0.2 mL of PBS. The wells were then dried and individually counted to determine “total” IgG binding. After determining “total” binding, the wells were incubated for two hours in 0.2 mL of PBS-Tween (0.05%) at room temperature with shaking. The supernatants were removed from the wells followed by three washes with 0.2 mL of PBS. The wells were dried and individually counted to determine “tight” IgG binding.
Untreated high binding and medium binding plates were used as controls. A comparative experiment was also performed in which a BSA protein coating was used in place of a surfactant coating. The BSA was preabsorbed onto the walls of the wells and then washed to remove excess material. Testing was then performed using the radiolabeled IgG solution as described above.
Radiolabel measurements were performed in a double blind study at BioMolecular Assays (Woburn, Mass.). IgG binding values per microwell were converted to ng/cm^2 values using a surface area of 0.94 cm^2 for a 0.1 mL volume.

[5] = blended at 5% into polypropylene, silver enhancer
[6] = after two hours in PBS-Tween (0.05%)

## PEO(400) DI-STEARATE
IgG [1]
  Bound Protein Absorbance at 550 nm: 0.10

## CCCCCCCCCCCCCCCCCC(=O)O [STEARIC ACID, reference compound]
Bound protein
  Visual Color Upon Protein Staining: Very dark

## SORBITOL TRI-STEARATE
Fetal Bovine Serum (FBS); blended at 5% into polystyrene
  Bound Protein Absorbance (550 nm) FBS: 0.008
BSA; blended at 5% into polystyrene
  Bound Protein Absorbance (550 nm) BSA: 0.005

## PEO(400) DI-OLEATE
IgG [1]
  Bound Protein Absorbance at 550 nm: 0.15

## PEO(600) DI-STEARATE
IgG [1]
  Bound Protein Absorbance at 550 nm: 0.10

## CCCCCCCC/C=C\CCCCCCCC(=O)OCC(O)CO (stereo not drawn) [GLYCEROL MONO-OLEATE]
HRP-Goat A'Mouse IgG
  % Reduction in Protein Binding: 92.4%

## SORBITOL MONO-STEARATE
Horse IgG
  IgG Protein Binding Absorbance (550 nm): 0.00
IgG [2]
  Absorbance (550 nm) Initial: 0.00
  Absorbance (550 nm) 1 Time 1 hr 23° C.: 0.00
  Absorbance (550 nm) 1 Time 24 hr 23° C.: 0.00
  Absorbance (550 nm) 1 Time 24 hr 37° C.: 0.00
  Absorbance (550 nm) 1 Time 24 hr 70° C.: 0.00
  Absorbance (550 nm) 6 Times 30 min each 23° C.: 0.00
[3]
  Absorbance (550 nm) pH = 9.2: 0.00
  Absorbance (550 nm) pH = 7.4: 0.00
  Absorbance (550 nm) pH = 4.6: 0.00
Fetal Bovine Serum (FBS); [5]
  Bound Protein Absorbance (550 nm) FBS: 0.000
BSA; [5]
  Bound Protein Absorbance (550 nm) BSA: 0.000
HRP-Goat A'Mouse IgG
  % Reduction in Protein Binding: 83.1* %

## PEO(200) DI-OLEATE
IgG [1]
  Bound Protein Absorbance at 550 nm: 0.15

## BSA Protein: BSA protein coating preabsorbed onto the wells, used in place of a surfactant coating [reference compound]
[4]; after three PBS washes
  Total IgG binding, Non-Sterilized: 594 ng/cm^2
[4]; [6]
  Tight IgG binding, Non-Sterilized: 173 ng/cm^2

## PEO(4) SORBITOL MONO-LAURATE
Horse IgG
  IgG Protein Binding Absorbance (550 nm): 0.00
IgG [1]
  Bound Protein Absorbance at 550 nm: 0.00
[4]; after three PBS washes
  Total IgG binding, Non-Sterilized: 4 ng/cm^2
[4]; gamma sterilized (1.5 Mrad), after three PBS washes
  Total IgG binding, Sterilized: 5 ng/cm^2
[4]; gamma sterilized (1.5 Mrad), after two hours in PBS-Tween (0.05%)
  Tight IgG binding, Sterilized: 3 ng/cm^2
[4]; [6]
  Tight IgG binding, Non-Sterilized: 2 ng/cm^2
IgG [2]
  Absorbance (550 nm) Initial: 0.00
  Absorbance (550 nm) 1 Time 1 hr 23° C.: 0.09
  Absorbance (550 nm) 1 Time 24 hr 23° C.: 0.10
  Absorbance (550 nm) 1 Time 24 hr 37° C.: 0.10
  Absorbance (550 nm) 1 Time 24 hr 70° C.: 0.10
  Absorbance (550 nm) 6 Times 30 min each 23° C.: 0.10
Fetal Bovine Serum (FBS); [5]
  Bound Protein Absorbance (550 nm) FBS: 0.056
BSA; [5]
  Bound Protein Absorbance (550 nm) BSA: 0.060
HRP-Goat A'Mouse IgG
  % Reduction in Protein Binding: 99.8%

## SORBITOL MONO-LAURATE
Horse IgG
  IgG Protein Binding Absorbance (550 nm): 0.00
IgG [2]
  Absorbance (550 nm) Initial: 0.00
  Absorbance (550 nm) 1 Time 1 hr 23° C.: 0.00
  Absorbance (550 nm) 1 Time 24 hr 23° C.: 0.00
  Absorbance (550 nm) 1 Time 24 hr 37° C.: 0.00
  Absorbance (550 nm) 1 Time 24 hr 70° C.: 0.00-0.02
  Absorbance (550 nm) 6 Times 30 min each 23° C.: 0.02-0.06
[3]
  Absorbance (550 nm) pH = 9.2: 0.00
  Absorbance (550 nm) pH = 7.4: 0.00
  Absorbance (550 nm) pH = 4.6: 0.00
